Assay results as given in patent publication US20240226030A1, “COMPOSITIONS AND METHODS USING AT LEAST ONE OF INOSITOL, ERYTHRITOL OR SORBITOL TO ENHANCE GROWTH OF FAECALIBACTERIUM PRAUSNITZII” (SOCIÉTÉ DES PRODUITS NESTLE S.A., priority 2021, published 2024).

How the values were obtained:
F. prausnitzii [1] = assay: Model organism test of sugar alcohols as energy substrate for F. prausnitzii; format: cell-based, Faecalibacterium prausnitzii; conditions: FIGS. 4A and 4B
Description: Using a model organism, the effect of inositol and sorbitol as energy substrate for F. prausnitzii was confirmed (FIGS. 4A and 4B), but not xylitol. Thus, all sugar alcohols cannot be assumed to have the same effect on F. prausnitzii.

F. prausnitzii [2] = assay: Growth of F. prausnitzii with added vitamins, glucose as substrate; format: cell-based, Faecalibacterium prausnitzii; conditions: FIG. 6D

Compound	effect as energy substrate for F. prausnitzii (F. prausnitzii [1])	growth of F. prausnitzii compared with control (F. prausnitzii [2])
OC[C@@H](O)[C@@H](O)CO [erythritol]	confirmed	–
O[C@H]1[C@H](O)[C@@H](O)[C@H](O)[C@@H](O)[C@H]1O [inositol]	confirmed	–
OC[C@@H](O)[C@@H](O)[C@H](O)[C@@H](O)CO [sorbitol]	confirmed	–
OC[C@@H](O)[C@H](O)[C@@H](O)CO [xylitol, reference compound]	not	–
Vitamin B12	–	more than control
